In patent US20090068276A1, “Pharmaceutical compositions” (Vectura Group plc, priority 2007, published 2009):

Test: Involuntary cough on administration of the active agent
Format: in vivo

- cough (administered via an alternative route to pulmonary inhalation): the cough is not induced
- involuntary cough (administered via pulmonary inhalation): induces an involuntary cough
SMILES: CN(C)CCCN1c2ccccc2CCc2ccc(Cl)cc21 [clomipramine]
